Experimental data as given in patent US20210290644A1, “COMPOUNDS AND METHODS FOR TREATING FUNGAL INFECTIONS” (Amplyx Pharmaceuticals, Inc., priority 2018, published 2021).
Several values for one entry are separate records, joined by “and”; a condition that tells them apart may be missing. Identical values can stand only once. Entries after “also recorded” stand apart in the source; their conditions may differ.

Tests used:
[1] = human, in vivo
Text: (§1) This was a Phase 1, first-in-human, randomized, double-blind, placebo-controlled single ascending dose (SAD) and multiple ascending dose (MAD) escalation study of 120 healthy male and female subjects. The objectives of the study were to evaluate the safety, tolerability, and pharmacokinetics of single and multiple doses of Compound 1 administered by intravenous (IV) infusion.
(§2) In the single ascending dose (SAD) phase, Cohorts 1 to 6 and 11A to 11D received single doses. For Cohorts 11A to 11D, the infusion time varied from 0.5 to 3 hours to evaluate the relationship between C., and tolerability. In the multiple ascending dose (MAD) phase, Cohorts 7 to 10 received multiple doses over 14 days, and Cohort 12 examined the feasibility of a loading dose regimen.
(§3) Blood samples for the determination of Compound 1 and Compound 1A plasma concentrations were collected before and at appropriate times during all single- and multiple-dose administrations of Compound 1. For SAD Cohorts 1 to 6, urine samples for the determination of Compound 1A were collected through 48 hrs after dosing.
(§4) Eighty (80) subjects were enrolled into SAD Cohorts 1 to 6 and 11A to 11D. Within each cohort, six subjects were randomized to Compound 1 and two subjects to placebo. All 60 subjects randomized to Compound 1 completed dosing. Fifty-nine (59) subjects completed the study.
(§5) Forty (40) subjects were enrolled into MAD Cohorts 7 to 10 and Loading Dose Cohort 12. Within each cohort, six subjects were randomized to Compound 1 and two subjects to placebo.
(§6) The PK analysis population therefore consisted of 60 subjects in the SAD phase and 28 subjects in the MAD phase.

clinical [2] = conditions: both, human, iv; for clearance / half-life: in vivo
Text: as §1, §2, §3, §4, §5, §6

clinical [3] = conditions: human, plasma, po
Text: In the single ascending dose (SAD) phase, subjects in Cohort 1a received a single IV dose in Period A and then rising single oral doses in Periods B to D. Subjects in Cohort 1b received a single oral dose under fed and fasted conditions in Periods E and F. Subjects in Cohorts 2 and 3 received once-daily oral doses for 14 days, as did subjects in Cohort 4 as part of an in vivo screen for drug-drug interaction (DDI) potential.
For SAD Cohorts 1a and 1b, urine samples for the determination of Compound 1A were collected through 48 hrs after dosing.
Forty-six (46) subjects were enrolled into the study, 8 in Cohort 1a, 10 in Cohort 1b, and 8 each in Cohorts 2 and 3.

clinical [4] = conditions: human, plasma, po, 400 mg
Text: (§7) Study #2 of Compound 1 was a Phase 1, double-blind, placebo-controlled, randomized study in healthy volunteers that consisted of a series of single and multiple dose treatments. In the single ascending dose (SAD) phase, subjects in Cohort 1a received a single IV dose in Period A and then rising single oral doses in Periods B to D. Subjects in Cohort 1b received a single oral dose under fed and fasted conditions in Periods E and F. Subjects in Cohorts 2 and 3 received once-daily oral doses for 14 days, as did subjects in Cohort 4 as part of an in vivo screen for drug-drug interaction (DDI) potential.
(§8) Blood samples for the determination of Compound 1 and Compound 1A plasma concentrations were collected before and at appropriate times during all single and multiple dose administrations of Compound 1. For SAD Cohorts 1a and 1b, urine samples for the determination of Compound 1A were collected through 48 hrs after dosing.

[5] = Study #2 Phase 1: effect of food (fed vs fasted) on pharmacokinetics of Compound 1A after 400 mg oral Compound 1; conditions: for F: 400 mg oral, ratio of geometric mean AUC(inf) to IV treatment after correction for dose;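 as to all read-outs here: cohort 1b subjects took one oral dose in both fed and fasted states, across two separate periods (E, F) within the single ascending dose phase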
Text: as §7, §8

[6] = Study #1 Phase 1: plasma and urine pharmacokinetics of Compound 1 and Compound 1A after IV infusion of Compound 1 (SAD, MAD, loading regimen); conditions: both, human
Text: as §1, §2, §3, §4, §5, §6

[7] = Cohort 1B, 400 mg oral Compound 1, fed vs fasted
[8] = plasma, 30 mg, Cohort 2: Compound 1 30 mg/3 hr IV, single dose, geometric mean [geometric %CV]

Nc1ncccc1-c1cc(Cc2ccc(COc3ccccn3)cc2)no1 [Compound 1A]
slope of log-log AUC0-24 vs. dose (power model parameter b) ([1]; both): 1.015±0.043
slope of log-log steady-state Cmax vs. dose (power model parameter b) ([1]; both): 1.039±0.031
CL ([1]; both, iv): 0.387 mL/min/kg
median accumulation, ratio of AUC0-24 on Day 14 to Day 1 ([1]; both, iv): 3.27
median accumulation, ratio of Cmax on Day 14 to Day 1 ([1]; both, iv): 1.96
slope of log-log AUC(inf) versus dose (power model parameter b) ([1]; both, iv): 1.01±0.020
slope of log-log Cmax versus dose (power model parameter b) ([1]; both, iv): 0.929±0.021
time at which steady-state is reached ([1]; both, iv): between Day 7 and Day 14
target plasma exposures (AUC0-24) for clinical efficacy against Candida spp., Aspergillus spp., rare molds ([1]; iv): exceeded
clearance (clinical [2]): 25.7 mL/min and 0.348 mL/min/kg
half-life (clinical [2]): 74.9 h
clearance (clinical [2]; CL): 31.5 mL/min and 0.45 mL/min/kg
half-life (clinical [2]; geometric mean T1/2, range across treatments): 39.2 to 74.9 h
half-life (clinical [2]; geometric mean t1/2, range across cohorts): 48 to 69 h
half-life (clinical [2]; t½): 39.2 h
AUC(0-t) (clinical [2]; plasma, 150 mg): 51900 ng·h/mL
Cmax (clinical [2]; plasma, 150 mg): 3420 ng/mL
Vd (clinical [2]; plasma, 150 mg): 174 L and 2.17 L/kg
AUC(0-inf) (clinical [2]; plasma, 350 mg): 173000 ng·h/mL
Cmax (clinical [2]; plasma, 350 mg): 4330 ng/mL
Vd (clinical [2]; plasma, 350 mg): 167 L and 2.26 L/kg
AUC(0-inf) (clinical [3]; 100 mg): 39600 ng·h/mL
CL/F (clinical [3]; 100 mg): 0.417 mL/min/kg
Cmax (clinical [3]; 100 mg): 1300 ng/mL
Vd/F (clinical [3]; 100 mg): 138 L and 1.78 L/kg
half-life (clinical [3]; 100 mg): 49.5 h
AUC(0-inf) (clinical [3]; 400 mg): 177000 ng·h/mL
CL/F (clinical [3]; 400 mg): 0.418 mL/min/kg
Cmax (clinical [3]; 400 mg): 4250 ng/mL
Vd/F (clinical [3]; 400 mg): 161 L and 2.35 L/kg
half-life (clinical [3]; 400 mg): 64.7 h
AUC(0-inf) (clinical [4]): 177000 ng·h/mL
CL/F (clinical [4]): 0.418 mL/min/kg
Cmax (clinical [4]): 4250 ng/mL
Vd/F (clinical [4]): 161 L and 2.35 L/kg
half-life (clinical [4]): 64.7 h
effect of high fat/high calorie meal on bioavailability/exposure ([5]; 400 mg oral Compound 1): no significant effect; also recorded: no impact of food
least squares geometric mean ratios (LSGMR) fed/fasted for Cmax and both AUCs ([5]; 400 mg oral Compound 1, high fat/high calorie meal): ~106%
Geometric Mean Ratio, AUC(0-t) [5, 7]: 106.00%
Geometric Mean Ratio, AUC(inf) [5, 7]: 106.15%
Geometric Mean Ratio, Cmax [5, 7]: 106.29%
F ([5]; Cohort 1B, Fasted): 101.2%
F ([5]; Cohort 1B, Fed): 107.4%
AUC(0-t) ([5]; human, plasma, po, 400 mg, AUC(0-24), Cohort 1B, 400 mg oral Compound 1, Fed, geometric mean): 43600 ng·h/mL
AUC(0-t) ([5]; human, plasma, po, 400 mg, AUC(0-t), Cohort 1B, 400 mg oral Compound 1, Fed, geometric mean): 180000 ng·h/mL
AUC(0-inf) ([5]; human, plasma, po, 400 mg, AUC(inf), Cohort 1B, 400 mg oral Compound 1, Fed, geometric mean): 188000 ng·h/mL
CL/F ([5]; human, plasma, po, 400 mg, CL/F, Cohort 1B, 400 mg oral Compound 1, Fed, geometric mean): 0.395 mL/min/kg
Cmax ([5]; human, plasma, po, 400 mg, Cmax, Cohort 1B, 400 mg oral Compound 1, Fed, geometric mean): 4520 ng/mL
Tmax ([5]; human, plasma, po, 400 mg, Tmax, Cohort 1B, 400 mg oral Compound 1, Fasted, median): 2.5 h
Tmax ([5]; human, plasma, po, 400 mg, Tmax, Cohort 1B, 400 mg oral Compound 1, Fed, median): 3.75 h
Vd/F ([5]; human, plasma, po, 400 mg, Vz/F, Cohort 1B, 400 mg oral Compound 1, Fed, geometric mean): 159 L and 2.3 L/kg
Tmax ([5]; human, plasma, po, 400 mg, median tmax, 400 mg oral Compound 1, fasted conditions): 2.5 h
Tmax ([5]; human, plasma, po, 400 mg, median tmax, 400 mg oral Compound 1, fed conditions): 3.75 h
half-life ([5]; human, plasma, po, 400 mg, t½, Cohort 1B, 400 mg oral Compound 1, Fed, geometric mean): 67.5 h
Vd ([6]; in vivo, 10 mg): 1.53 L/kg
Vd ([6]; in vivo, 50 mg): 188 L
AUC(0-t) ([6]; in vivo, 200 mg): 76000 ng·h/mL
AUC(0-t) ([6]; plasma, 10 mg, AUC(0-24), Cohort 1: Compound 1 10 mg/3 hr IV, single dose, geometric mean [geometric %CV]): 1540 ng·h/mL
AUC(0-t) ([6]; plasma, 10 mg, AUC(0-t), Cohort 1: Compound 1 10 mg/3 hr IV, single dose, geometric mean [geometric %CV]): 2380 ng·h/mL
AUC(0-inf) ([6]; plasma, 10 mg, Cohort 1: Compound 1 10 mg/3 hr IV, single dose, geometric mean [geometric %CV]): 4050 ng·h/mL
Tmax ([6]; plasma, 10 mg, Cohort 1: Compound 1 10 mg/3 hr IV, single dose, median): 3 h
Vd ([6]; plasma, 10 mg, Vz, Cohort 1: Compound 1 10 mg/3 hr IV, single dose, geometric mean [geometric %CV]): 107 L
AUC(0-t) ([6]; plasma, 30 mg, AUC(0-24), Cohort 2: Compound 1 30 mg/3 hr IV, single dose, geometric mean [geometric %CV]): 4320 ng·h/mL
AUC(0-t) ([6]; plasma, 30 mg, AUC(0-t), Cohort 2: Compound 1 30 mg/3 hr IV, single dose, geometric mean [geometric %CV]): 14100 ng·h/mL
AUC(0-inf) [6, 8]: 16600 ng·h/mL
Cmax [6, 8]: 477 ng/mL
Tmax ([6]; plasma, 30 mg, Cohort 2: Compound 1 30 mg/3 hr IV, single dose, median): 3 h
Vd ([6]; plasma, 30 mg, Vz, Cohort 2: Compound 1 30 mg/3 hr IV, single dose, geometric mean [geometric %CV]): 121 L and 1.72 L/kg
AUC(0-t) ([6]; plasma, 50 mg, AUC(0-24), Cohort 7: Compound 1 50 mg/3 hr IV QD × 14 days, Day 1, geometric mean): 6390 ng·h/mL
AUC(0-t) ([6]; plasma, 50 mg, AUC(0-24), Cohort 7: Compound 1 50 mg/3 hr IV QD × 14 days, Day 7, geometric mean): 17600 ng·h/mL
AUC(0-t) ([6]; plasma, 50 mg, AUC(0-24), Cohort 7: Compound 1 50 mg/3 hr IV QD × 14 days, Day 14, geometric mean): 20300 ng·h/mL
Cmax ([6]; plasma, 50 mg, Cohort 7: Compound 1 50 mg/3 hr IV QD × 14 days, Day 1, geometric mean): 669 ng/mL
Cmax ([6]; plasma, 50 mg, Cohort 7: Compound 1 50 mg/3 hr IV QD × 14 days, Day 7, geometric mean): 1090 ng/mL
Cmax ([6]; plasma, 50 mg, Cohort 7: Compound 1 50 mg/3 hr IV QD × 14 days, Day 14, geometric mean): 1180 ng/mL
Tmax ([6]; plasma, 50 mg, Cohort 7: Compound 1 50 mg/3 hr IV QD × 14 days, Day 1, median): 3 h
Tmax ([6]; plasma, 50 mg, Cohort 7: Compound 1 50 mg/3 hr IV QD × 14 days, Day 7, median): 3 h
Tmax ([6]; plasma, 50 mg, Cohort 7: Compound 1 50 mg/3 hr IV QD × 14 days, Day 14, median): 3 h
